Laboratory results taken from patent US20120263736A1, “METHOD FOR PREDICTING AND TREATING A STERILE INFLAMMATION AND DISCRIMINATING BETWEEN STERILE AND INFECTIVE INFLAMMATION” (Beth Israel Deaconess Medical Center, Inc., priority 2009, published 2012).

How the values were obtained:
Format in all cases: cell-based
[1] = system: human PMN; test: PMN cytosolic calcium ([Ca2+]i) flux
Description: (§1) PMN isolation (Hauser et al., J. Leukoc. Biol. 69:63-68, 2001; Fekete et al., Shock 16:15-20, 2001), cytosolic calcium studies (Hauer et al., J. Leukoc. Biol. 69:63-68, 2001; Hauser et al., J. Trauma 48:592-598, 2000; Tarlowe et al., J. Immunol. 171:2066-2073, 2003; Grynkiewicz et al., J. Biol. Chem. 260:2440-2450, 1985), IL-8 synthesis measurement by ELISA (Zallen et al., J. Trauma 46:42-48, 1999), cell signaling by Western blots (Zhang et al., Life Sci. 77:3068-3077, 2005), transwell chemotaxis (Tarlowe et al., J. Immunol. 171:2066-2073, 2003), and video-microscopy chemotaxis assays (Chen et al., Science 314:1792-1795, 2006) were performed as previously described.
Study data was assessed for statistical significance using Student's (unpaired) t-test or Analysis of Variance (ANOVA) where appropriate using a SigmaStat program with post-hoc tests chosen by the computer. [Ca^2+]i transients are reported as the mean change from basal [Ca^2+]i in nanomoles per liter (nM/L). Prolonged [Ca^2+]i fluxes are reported as the area under the curve (AUC) of measured change from basal [Ca^2+]i over the observation period (nM·sec). All data are reported as mean±s.e.m. with significance accepted at p<0.05.

[2] = system: PMN; conditions: for PMN chemotaxis to the agent: MTD 100 μg/ml, mtDNA 10 μg/ml, CpG DNA 10 μg/ml, LPS 1 μg/ml
Description: as §1
Time-lapse video-microscopic chemotaxis was assayed as described previously (Chen et al., Science 314:1792-1795, 2006). Cells were exposed to a chemoattractant gradient field by slowly releasing MTD (˜100 μg/ml) or fMLF (10 nM) from a micropipette tip placed in proximity to the cells. The migration paths of individual cells were plotted using Adobe Illustrator. […] Experiments were repeated with multiple PMN and MTD isolates.

[3] = system: human PMN; test: PMN p38 and p44/42 MAPK phosphorylation (Western blot); conditions: chloroquine 10 μg/mL
Protocol: (§2) PMN degranulation was assessed by measuring MMP-8 release. Human PMNs were suspended in HBSS with 1.8 mM Ca^2+ at 37° C. for 10 minutes while exposed to MTD, mtDNA, or fMLF at indicated concentrations. […] After stimulation, PMN were placed on ice and centrifuged. Supernatants were then assayed for MMP-8 by Western blot. Residual PMN were lysed to assay for MAPKs.
(§3) PMN activation was assessed by measuring MMP-8/9 degranulation and intracellular MAPK phosphorylation. Human PMN were exposed to mtDNA and nDNA at 1-100 μg/mL, 30 minutes at 37° C. After stimulation, PMN were placed on ice and centrifuged (10,000 g at 4° C. for 2 minutes) to obtain supernatants, which were then assayed for MMP-8 and MMP-9 by Western blot as described below. M-PER (Pierce, Rockford, Ill.) was then used to lyse the PMN cell pellets for determination of total and phosphorylated MAPKs by Western blot as described below. Total protein concentration of the lysates was determined by BCA assay.
(§4) Rat liver homogenates and supernatants from human PMN or human PMN lysates were boiled for 5 minutes in SDS sample buffer. Proteins were separated by SDS-PAGE using a […] polyacrylamide gel. Tris-glycine polyacrylamide gradient gels were purchased from Novex (San Diego, Calif.). Separated proteins were transferred to nitrocellulose membrane (0.45 μm pore size; Bio-Rad, Hercules, Calif.). […]

[4] = system: human PMN; conditions: mtDNA 100 μg/mL; preincubation with chloroquine 10 μg/mL
Protocol: as §2, §3, §4

With `Nc1ncnc2c1ncn2[C@@H]1O[C@H](COP(=O)(O)OP(=O)(O)OP(=O)(O)O)[C@@H](O)[C@H]1O` [ATP] the “PMN [Ca2+]i mobilization” value ([1]; 1 μM) was “mobilizes”.
With `C/C=C/C[C@@H](C)[C@@H](O)[C@H]1C(=O)N[C@@H](CC)C(=O)N(C)CC(=O)N(C)[C@@H](CC(C)C)C(=O)N[C@@H](C(C)C)C(=O)N(C)[C@@H](CC(C)C)C(=O)N[C@@H](C)C(=O)N[C@H](C)C(=O)N(C)[C@@H](CC(C)C)C(=O)N(C)[C@@H](CC(C)C)C(=O)N(C)[C@H](C(C)C)C(=O)N1C` [CsH, Cyclosporin H] the FPR-induced calcium depletion ([1]; human PMN) was “specifically inhibits”, the “PMN migrating to fMLF, effect of inhibitor” value ([2]; CsH 1 μM, fMLF 10 nM) was “significantly inhibits” and the “PMN chemotaxis to IL-8, effect of inhibitor” value ([2]; CsH, IL-8 10 nM) was “no effects”.
In the case of `CCN(CC)CCCC(C)Nc1ccnc2cc(Cl)ccc12` (stereo not drawn) [chloroquine], the “phosphorylation of p38 MAPK in response to mtDNA, effect of inhibitor” value ([3]; mtDNA 100 μg/mL) was “not inhibited”, the “p38 MAPK responses to mtDNA, effect of inhibitor” value ([3]; mtDNA 1 and 5 μg/mL, 30 minutes, 37° C.) was “markedly inhibited” and the “mtDNA-induced release of MMP-8 and -9, effect of inhibitor” value [4] was “suppressed”.
With `CSCC[C@H](NC=O)C(=O)N[C@@H](CC(C)C)C(=O)N[C@@H](Cc1ccccc1)C(=O)O` [fMLF, N-formyl-methionyl-leucyl-phenylalanine] the “PMN chemotaxis to the agent” value ([2]; fMLF 10 nM, IL-8 10 nM) was “shows chemotaxis”.
With IL-8: chemokine used as chemoattractant the “PMN chemotaxis to the agent” value ([2]; fMLF 10 nM, IL-8 10 nM) was “shows chemotaxis”.
